Assay results taken from US9265189B2, “Method for reducing damage by harmful organisms in corn cultivation” (SUMITOMO CHEMICAL COMPANY, LIMITED, priority 2012, dated 2016).

System: Agriotes sordidus
Assay: Field test, corn plants damaged by Agriotes sordidus after in-furrow spray (Example 3)
Type: in vivo
Conditions: Example section 3: clothianidin 25 g/ha, in-furrow spray of Dantop 50WG aqueous suspension 100 L/ha, corn KUBRIK, 34 days after application; non-treatment section 34.6
Description: A cultivated land was ditched at intervals of 75 cm to a depth of 3 cm from the soil surface, and the furrow was seeded with corn (Zea Mays, variety name: KUBRIK; hybrid variety) at intervals of 17 cm. A seeding density of corn was 78000 seeds/ha. Then, the furrow was spray-treated with an aqueous suspension of a clothianidin water dispersible granule (using a 50% water dispersible granule, trade name: Dantop 50WG, manufactured by Philagro) at 100 L/ha so that the application amount of clothianidin was 25 g/ha, and then a soil on the side of the furrow was gathered together to close the furrow. This was defined as an example section 3. For comparison, a non-treatment section, which was seeded with corn without application of a clothianidin water dispersible granule, was provided. In any section, four places were arranged by a randomized block method, with one place having an area of 54 m^2 (18 m×3 m). 34 days after application of the clothianidin water dispersible granule, the number of plants of corn damaged by Agriotes sordidus in each of the example section 3 and the non-treatment section was investigated, a damage plant rate was calculated in accordance with the following equation, and then an average damage plants rate of the four investigation sections was determined. Damage plant rate(%)=[(number of plants of corn damaged)/(number of plants of corn seeded)]×100

For `CN/C(=N\[N+](=O)[O-])NCc1cnc(Cl)s1` [clothianidin], the “Damage plant rate (%)” value was 1.8%.
